Test results from patent publication US7521458B2, “Spiropiperidylrifamycins for the treatment of mycobacterial infections” (priority 2004, dated 2009).

Experiments:
Assay type in all cases: cell-based
[1] = system: Mycobacterium tuberculosis ATCC 35837; test: Method of the proportions, Table 3 entry 1
[2] = system: Mycobacterium tuberculosis ATCC 35820; test: Method of the proportions, Table 3 entry 2
[3] = system: Mycobacterium tuberculosis ATCC 35838; test: Method of the proportions, Table 3 entry 3
[4] = system: Mycobacterium tuberculosis ATCC 35822; test: Method of the proportions, Table 3 entry 4
[5] = system: Mycobacterium tuberculosis H37 RV; test: Method of the proportions, Table 3 entry 5
[6] = system: Mycobacterium tuberculosis 38 strains assayed; test: Method of the proportions, Table 3 entry 6
[7] = system: Mycobacterium tuberculosis 8 strains assayed; test: Method of the proportions, Table 3 entry 7
[8] = system: Mycobacterium tuberculosis 2 strains assayed; test: Method of the proportions, Table 3 entry 8
[9] = system: Mycobacterium tuberculosis 3 strains assayed; test: Method of the proportions, Table 3 entry 9
[10] = system: Mycobacterium tuberculosis 1 strain assayed; test: Method of the proportions, Table 3 entry 10
[11] = system: Mycobacterium avium-intracellulare complex 5 strains assayed; test: Method of the proportions, Table 3 entry 11; settings: for MIC: Mycobacterium avium-intracellulare, five strains, all resistant
[12] = system: Mycobacterium Kansasii 4 strains assayed; test: Method of the proportions, Table 3 entry 12
[13] = concentration analysed 0.2 μg/ml
[14] = concentration analysed 25 μg/ml

4-deoxo-3,4-[(2R)-2-spiro(N-allyl-2,6-diphenyl-4-piperidil)-2,5-dihydro-1H-imidazo]rifamycin S [RFA 7M]
R (R means resistent): Sensitivity of strain (s/R) ([1]; concentration analysed 1 μg/ml) | Sensitivity of strains (s/R) ([11]; concentration analysed 1 μg/ml)
s (s means sensitive): Sensitivity of strain (s/R) ([2]; concentration analysed 1 μg/ml) | Sensitivity of strain (s/R) ([3]; concentration analysed 1 μg/ml) | Sensitivity of strain (s/R) ([4]; concentration analysed 1 μg/ml) | Sensitivity of strain (s/R) ([5]; concentration analysed 1 μg/ml) | Sensitivity of strains (s/R) ([6]; concentration analysed 1 μg/ml) | Sensitivity of strains (s/R) ([7]; concentration analysed 1 μg/ml) | Sensitivity of strains (s/R) ([8]; concentration analysed 1 μg/ml) | Sensitivity of strains (s/R) ([9]; concentration analysed 1 μg/ml) | Sensitivity of strain (s/R) ([10]; concentration analysed 1 μg/ml) | Sensitivity of strains (s/R) ([12]; concentration analysed 1 μg/ml)

4-deoxo-3,4-[(2R)-2-spiro(N-buthyl-2,6-diphenyl-4-piperidil)-2,5-dihydro-1H-imidazo]rifamycin S [RFA 16M]
s (s means sensitive): Sensitivity of strain (s/R) ([1]; concentration analysed 1 μg/ml) | Sensitivity of strain (s/R) ([2]; concentration analysed 1 μg/ml) | Sensitivity of strain (s/R) ([3]; concentration analysed 1 μg/ml) | Sensitivity of strain (s/R) ([4]; concentration analysed 1 μg/ml) | Sensitivity of strain (s/R) ([5]; concentration analysed 1 μg/ml) | Sensitivity of strains (s/R) ([6]; concentration analysed 1 μg/ml) | Sensitivity of strains (s/R) ([7]; concentration analysed 1 μg/ml) | Sensitivity of strains (s/R) ([8]; concentration analysed 1 μg/ml) | Sensitivity of strains (s/R) ([9]; concentration analysed 1 μg/ml) | Sensitivity of strain (s/R) ([10]; concentration analysed 1 μg/ml) | Sensitivity of strains (s/R) ([12]; concentration analysed 1 μg/ml)
s/R: Sensitivity of strains (s/R) ([11]; concentration analysed 1 μg/ml)

4-deoxo-3,4-[(2R)-2-spiro(N-homoallyl-2,6-diphenyl-4-piperidil)-2,5-dihydro-1H-imidazo]rifamycin S [RFA 15M]
R (R means resistent): Sensitivity of strain (s/R) ([1]; concentration analysed 1 μg/ml)
s/R: Sensitivity of strains (s/R) ([11]; concentration analysed 1 μg/ml)
s (s means sensitive): Sensitivity of strain (s/R) ([2]; concentration analysed 1 μg/ml) | Sensitivity of strain (s/R) ([3]; concentration analysed 1 μg/ml) | Sensitivity of strain (s/R) ([4]; concentration analysed 1 μg/ml) | Sensitivity of strain (s/R) ([5]; concentration analysed 1 μg/ml) | Sensitivity of strains (s/R) ([6]; concentration analysed 1 μg/ml) | Sensitivity of strains (s/R) ([7]; concentration analysed 1 μg/ml) | Sensitivity of strains (s/R) ([8]; concentration analysed 1 μg/ml) | Sensitivity of strains (s/R) ([9]; concentration analysed 1 μg/ml) | Sensitivity of strain (s/R) ([10]; concentration analysed 1 μg/ml) | Sensitivity of strains (s/R) ([12]; concentration analysed 1 μg/ml)

4-deoxo-3,4-[(2R)-2-spiro[2,6-bis(4-fluorophenyl)-4-piperidil]-2,5-dihydro-1H-imidazo]rifamycin S [RFA 5M]
s (s means sensitive): Sensitivity of strain (s/R) ([1]; concentration analysed 1 μg/ml) | Sensitivity of strain (s/R) ([2]; concentration analysed 1 μg/ml) | Sensitivity of strain (s/R) ([3]; concentration analysed 1 μg/ml) | Sensitivity of strain (s/R) ([4]; concentration analysed 1 μg/ml) | Sensitivity of strain (s/R) ([5]; concentration analysed 1 μg/ml) | Sensitivity of strains (s/R) ([6]; concentration analysed 1 μg/ml) | Sensitivity of strains (s/R) ([7]; concentration analysed 1 μg/ml) | Sensitivity of strains (s/R) ([8]; concentration analysed 1 μg/ml) | Sensitivity of strains (s/R) ([9]; concentration analysed 1 μg/ml) | Sensitivity of strain (s/R) ([10]; concentration analysed 1 μg/ml) | Sensitivity of strains (s/R) ([11]; concentration analysed 1 μg/ml) | Sensitivity of strains (s/R) ([12]; concentration analysed 1 μg/ml)

4-deoxo-3,4-[(2R)-2-spiro[2,6-bis(4-methoxiphenyl)-4-piperidyl]-2,5-dihydro-1H-imidazo]rifamycin S [RFA 4M]
s (s means sensitive): Sensitivity of strain (s/R) ([1]; concentration analysed 1 μg/ml) | Sensitivity of strain (s/R) ([2]; concentration analysed 1 μg/ml) | Sensitivity of strain (s/R) ([3]; concentration analysed 1 μg/ml) | Sensitivity of strain (s/R) ([4]; concentration analysed 1 μg/ml) | Sensitivity of strain (s/R) ([5]; concentration analysed 1 μg/ml) | Sensitivity of strains (s/R) ([6]; concentration analysed 1 μg/ml) | Sensitivity of strains (s/R) ([7]; concentration analysed 1 μg/ml) | Sensitivity of strains (s/R) ([8]; concentration analysed 1 μg/ml) | Sensitivity of strains (s/R) ([9]; concentration analysed 1 μg/ml) | Sensitivity of strain (s/R) ([10]; concentration analysed 1 μg/ml) | Sensitivity of strains (s/R) ([12]; concentration analysed 1 μg/ml)
s/R: Sensitivity of strains (s/R) ([11]; concentration analysed 1 μg/ml)

CC[C@@H](CO)NCCN[C@@H](CC)CO [EB, ethambutol]
s (s means sensitive): Sensitivity of strain (s/R) ([1]; concentration analysed 5 μg/ml) | Sensitivity of strain (s/R) ([2]; concentration analysed 5 μg/ml) | Sensitivity of strain (s/R) ([4]; concentration analysed 5 μg/ml) | Sensitivity of strain (s/R) ([5]; concentration analysed 5 μg/ml) | Sensitivity of strains (s/R) ([6]; concentration analysed 5 μg/ml) | Sensitivity of strains (s/R) ([7]; concentration analysed 5 μg/ml) | Sensitivity of strains (s/R) ([8]; concentration analysed 5 μg/ml) | Sensitivity of strains (s/R) ([9]; concentration analysed 5 μg/ml) | Sensitivity of strain (s/R) ([10]; concentration analysed 5 μg/ml)
R (R means resistent): Sensitivity of strain (s/R) ([3]; concentration analysed 5 μg/ml) | Sensitivity of strains (s/R) ([11]; concentration analysed 5 μg/ml) | Sensitivity of strains (s/R) ([12]; concentration analysed 5 μg/ml)

NNC(=O)c1ccncc1 [IZ, isoniazid]
s (s means sensitive): Sensitivity of strain (s/R) [1, 13] | Sensitivity of strain (s/R) [2, 13] | Sensitivity of strain (s/R) [3, 13] | Sensitivity of strain (s/R) [5, 13] | Sensitivity of strains (s/R) [6, 13] | Sensitivity of strains (s/R) [7, 13] | Sensitivity of strains (s/R) [9, 13]
R (R means resistent): Sensitivity of strain (s/R) [4, 13] | Sensitivity of strains (s/R) [8, 13] | Sensitivity of strain (s/R) [10, 13] | Sensitivity of strains (s/R) [11, 13] | Sensitivity of strains (s/R) [12, 13]

NC(=O)c1cnccn1 [PZ, pyrazinamide]
R (R means resistent): Sensitivity of strains (s/R) [7, 14] | Sensitivity of strains (s/R) [11, 14] | Sensitivity of strains (s/R) [12, 14]
s (s means sensitive): Sensitivity of strain (s/R) [1, 14] | Sensitivity of strain (s/R) [2, 14] | Sensitivity of strain (s/R) [3, 14] | Sensitivity of strain (s/R) [4, 14] | Sensitivity of strain (s/R) [5, 14] | Sensitivity of strains (s/R) [6, 14] | Sensitivity of strains (s/R) [8, 14] | Sensitivity of strains (s/R) [9, 14] | Sensitivity of strain (s/R) [10, 14]

CO[C@H]1/C=C/O[C@@]2(C)Oc3c(C)c(O)c4c(c3C2=O)C2=NC3(CCN(CC(C)C)CC3)NC2=C(NC(=O)/C(C)=C\C=C\[C@H](C)[C@H](O)[C@@H](C)[C@@H](O)[C@@H](C)[C@H](OC(C)=O)[C@@H]1C)C4=O [RFB, rifabutin]
R (R means resistent): Sensitivity of strain (s/R) ([1]; concentration analysed 1 μg/ml) | Sensitivity of strains (s/R) ([11]; concentration analysed 1 μg/ml)
> 1 µg/mL: MIC [11]
s (s means sensitive): Sensitivity of strain (s/R) ([2]; concentration analysed 1 μg/ml) | Sensitivity of strain (s/R) ([3]; concentration analysed 1 μg/ml) | Sensitivity of strain (s/R) ([4]; concentration analysed 1 μg/ml) | Sensitivity of strain (s/R) ([5]; concentration analysed 1 μg/ml) | Sensitivity of strains (s/R) ([6]; concentration analysed 1 μg/ml) | Sensitivity of strains (s/R) ([7]; concentration analysed 1 μg/ml) | Sensitivity of strains (s/R) ([8]; concentration analysed 1 μg/ml) | Sensitivity of strains (s/R) ([9]; concentration analysed 1 μg/ml) | Sensitivity of strain (s/R) ([10]; concentration analysed 1 μg/ml) | Sensitivity of strains (s/R) ([12]; concentration analysed 1 μg/ml)

CO[C@H]1/C=C/O[C@@]2(C)Oc3c(C)c(O)c4c(O)c(c(/C=N/N5CCN(C)CC5)c(O)c4c3C2=O)NC(=O)/C(C)=C\C=C\[C@H](C)[C@H](O)[C@@H](C)[C@@H](O)[C@@H](C)[C@H](OC(C)=O)[C@@H]1C [RI, rifampicin]
s (s means sensitive): Sensitivity of strain (s/R) ([2]; concentration analysed 1 μg/ml) | Sensitivity of strain (s/R) ([3]; concentration analysed 1 μg/ml) | Sensitivity of strain (s/R) ([4]; concentration analysed 1 μg/ml) | Sensitivity of strain (s/R) ([5]; concentration analysed 1 μg/ml) | Sensitivity of strains (s/R) ([6]; concentration analysed 1 μg/ml) | Sensitivity of strains (s/R) ([7]; concentration analysed 1 μg/ml) | Sensitivity of strains (s/R) ([8]; concentration analysed 1 μg/ml) | Sensitivity of strains (s/R) ([9]; concentration analysed 1 μg/ml) | Sensitivity of strain (s/R) ([10]; concentration analysed 1 μg/ml) | Sensitivity of strains (s/R) ([12]; concentration analysed 1 μg/ml)
> 1 µg/mL: MIC [11]
R (R means resistent): Sensitivity of strain (s/R) ([1]; concentration analysed 1 μg/ml) | Sensitivity of strains (s/R) ([11]; concentration analysed 1 μg/ml)

CN[C@@H]1[C@H](O[C@H]2[C@H](O[C@H]3[C@H](O)[C@@H](O)[C@H](N=C(N)N)[C@@H](O)[C@@H]3N=C(N)N)O[C@@H](C)[C@]2(O)C=O)O[C@@H](CO)[C@H](O)[C@H]1O [SM]
s/R: Sensitivity of strains (s/R) ([11]; concentration analysed 4 μg/ml)
R (R means resistent): Sensitivity of strain (s/R) ([2]; concentration analysed 4 μg/ml) | Sensitivity of strains (s/R) ([9]; concentration analysed 4 μg/ml) | Sensitivity of strain (s/R) ([10]; concentration analysed 4 μg/ml) | Sensitivity of strains (s/R) ([12]; concentration analysed 4 μg/ml)
s (s means sensitive): Sensitivity of strain (s/R) ([1]; concentration analysed 4 μg/ml) | Sensitivity of strain (s/R) ([3]; concentration analysed 4 μg/ml) | Sensitivity of strain (s/R) ([4]; concentration analysed 4 μg/ml) | Sensitivity of strain (s/R) ([5]; concentration analysed 4 μg/ml) | Sensitivity of strains (s/R) ([6]; concentration analysed 4 μg/ml) | Sensitivity of strains (s/R) ([7]; concentration analysed 4 μg/ml) | Sensitivity of strains (s/R) ([8]; concentration analysed 4 μg/ml)

NNC(=O)c1cccs1 [TCH, 2-tiophene hydrazo carboxilic acid]
R (R means resistent): Sensitivity of strain (s/R) ([1]; concentration analysed 1 μg/ml) | Sensitivity of strain (s/R) ([2]; concentration analysed 1 μg/ml) | Sensitivity of strain (s/R) ([3]; concentration analysed 1 μg/ml) | Sensitivity of strain (s/R) ([4]; concentration analysed 1 μg/ml) | Sensitivity of strain (s/R) ([5]; concentration analysed 1 μg/ml) | Sensitivity of strains (s/R) ([6]; concentration analysed 1 μg/ml) | Sensitivity of strains (s/R) ([7]; concentration analysed 1 μg/ml) | Sensitivity of strains (s/R) ([8]; concentration analysed 1 μg/ml) | Sensitivity of strains (s/R) ([9]; concentration analysed 1 μg/ml) | Sensitivity of strain (s/R) ([10]; concentration analysed 1 μg/ml) | Sensitivity of strains (s/R) ([11]; concentration analysed 1 μg/ml) | Sensitivity of strains (s/R) ([12]; concentration analysed 1 μg/ml)
